Data from ChEMBL document CHEMBL1159150, “Synthesis and anticonvulsant properties of BW A78U structurally-related compounds” (1995).
Activity calls are given as the source filed them. No cut-off for these calls is given here.

Assays:
Rattus norvegicus [1] = experiment: Percent of rats protected from tonic seizure by ip administration at a dose of 40 mg/kg for anticonvulsant activity; type: functional; conditions: route intraperitoneal
Rattus norvegicus [2] = experiment: Percent of rats protected from tonic seizure by ip administration at a dose of 10 mg/kg for anticonvulsant activity; type: functional; conditions: route intraperitoneal
Rattus norvegicus [3] = experiment: Anticonvulsant activity for tonic seizure by ip administration at a dose of 10 mg/kg; type: functional; conditions: route intraperitoneal, read-out: ID50 (the source's name)
Rattus norvegicus [4] = experiment: Anticonvulsant activity for tonic seizure by ip administration at a dose of 10 mg/kg; Inactive; type: functional, organism-based; set-up: dose 10 mg/kg

| Compound | Protection (Rattus norvegicus [1]) [%] | Protection (Rattus norvegicus [2]) [%] | ED50 (Rattus norvegicus [3]) [mg/kg] | ID50 (Rattus norvegicus [4]) |
| --- | --- | --- | --- | --- |
| CNc1nccn2c(Cc3ccccc3)nnc12 | 100 | 65 | – | – |
| NC(=O)c1cc(Cc2ccccc2)ccn1 | 100 | 50 | – | – |
| CNc1ncn(Cc2ccccc2F)c2ncnc1-2 | 100 | 50 | 10 | – |
| CNc1ncnc2c1ncn2Cc1ccccc1F [BW-A78U] | – | 100 | 4 | – |
| Cc1nc(CCc2ccccc2)c(C(N)=O)nc1C | 30 | 0 | – | – |
| CNc1ncnc2c1cnn2Cc1ccccc1F | 65 | 0 | – | inactive |
| CNC(=O)c1cn(Cc2ccccc2)cn1 | 90 | 20 | – | – |
| Cc1nc(C(N)=O)c(CCc2ccccc2)s1 | 65 | 30 | – | – |
| CNc1cc(N(Cc2ccccc2)C(C)=O)ncn1 | 55 | 20 | – | – |
